# Test results from patent publication US20230321083A1, “Inhibitors of GPR174 and Uses Thereof” (Omeros Corporation, priority 2016, published 2023).
# Legend:
# [1] = system: PD-L1, TIGIT, AREG expression in human T cells; test: PD-L1, TIGIT and AREG expression on human T cells in PBMC cultures; assay type: cell-based; conditions: 1.25 or 5 μM; one day post-stimulation; dose-dependent
# Protocol: PBMC cells from a single donor mixed with additional irradiated antigen-presenting cells (APC) and anti-CD3 antibodies (UCHT1) were incubated in the presence of various concentrations of GPR174 inhibitory compound #10 (1.25 to 5 μM) or equivalent concentrations of vehicle (DMSO). The cells were analyzed by flow cytometry for expression of CD4, CD8, PD-L1, TIGIT and AREG.
# C57BL/6+DBA1 splenocytes = test: Cytokines in C57BL/6 + DBA1 splenocyte co-culture; assay type: cell-based, mouse; conditions: 30 μM; day 6 after mixing
# Protocol: In order to stimulate T cells in mice, splenocytes obtained from two different mouse strains, C57BL/6 and DBA1, were mixed in culture.
# The effect of compound #10 on production of cytokines (IFN-γ, IL-5, TNF-α, IL-2, IL-6, IL-4, IL-10, IL-9, IL17A, IL17F, IL-21, IL-22 and IL-13) in mouse splenocyte co-cultures was determined as follows. Splenocytes obtained from two different mouse strains, C57BL/6 and DBA1, were mixed in culture in the presence or absence of 30 μM compound #10. Cytokine production of IFN-γ, IL-5, TNF-α, IL-2, IL-6, IL-4, IL-10, IL-9, IL-17A, IL-17F, IL-21, IL-22 and IL-13 was measured in the co-culture supernatant at day 4 and day 6 after mixing. Cytokine levels were determined by LEGENDplex™ bead-based immunoassays from BioLegend (San Diego, CA) according to the manufacturer's instructions.
# [2] = system: CTLA4 expression in human PBMC T cells; test: CTLA4 expression on T cell subsets in human PBMC cultures; assay type: cell-based; conditions: 0.19-6.0 μM; one day post-stimulation; dose-dependent
# Protocol: PBMC cells from a single donor were cultured overnight with additional irradiated antigen-presenting cells (APC) in the presence of various concentrations of GPR174 inhibitory compound #10 (0.019 to 6 μM) or equivalent concentrations of vehicle (DMSO). Anti-CD3 (OKT3) was then added to the cultures for an additional 24 hours. The cells were analyzed by flow cytometry for expression of FOXP3, CTLA-4, CD4, CD3, CD45RA and CD25.
# human PBMCs = test: Treg (FoxP3/Helios) flow cytometry in anti-CD3/anti-CD28 stimulated human PBMCs; assay type: cell-based
# Protocol: (§1) A fraction of the cells was taken for staining on day 3 post-stimulation, while the rest of the cells were split 1:4 with fresh medium and used for staining on day 7 post-stimulation. To determine the fraction of natural Treg (nTreg) cells (FoxP3^+Helios^+), PBMCs were washed, stained with fluorescently labeled anti-CD4 antibodies, fixed, permeabilized and stained with a mixture of fluorescent anti-FoxP3 and anti-Helios antibodies. Labeled cells were analyzed by flow cytometry for populations stained for these three markers. Each experiment was performed in triplicate and was repeated five times.
# as §1, with “three” for “five”
# as §1, with “day 2” for “day 3”, “(FoxP3^+Helios^+), PBMC” for “(FoxP3^+Helios^+), PBMCs”
# GPR174 = GPR174 (Homo sapiens, UniProt Q9BXC1); test: CRE-Luc reporter Gs signaling assay, cells transfected with GPR174; assay type: cell-based; design: host or cells: HEK293 or CHO cell lines (ATCC); conditions: CRE-Luc reporter
# Protocol: (§2) Compounds were tested in the reporter system with increasing concentrations of GPR174-interacting compounds. GPR174 construct pCMV6-XL4-GPR174 or ADBR2, reporter of interest, pCRE-Luc or GL4.29 (3000 ng), and TK-renilla as an internal control (10 ng) with lipofectamine 2000 (60 ug) (Invitrogen, CA) according to the manufacturer's directions.
# (§3) The DNA/lipofectamine 2000 mix (3000 μL) was incubated at room temperature for 30 minutes and then added into a 10 cm culture dish (Corning, NY) containing 70-90% confluent cultured cells, typically HEK293 or CHO cell lines (ATCC, VA), in 15 mL of media. The cells were further incubated for 4-6 hours at 37° C. and then media were removed and cells were detached with 2 mL trypsin (Life Technologies, CA). Media (26 mL) were added to the detached cells and 120 μL of transfected cells were transferred to each well on a 96-well plate. Increasing concentration of each compound in DMSO (1.2 μl) was added to the cells after plating into the 96-well plate. The cells were further incubated at 37° C. for various times. The media were removed and the cells lysed. Luciferase and renilla activities were measured with the Dual-luciferase assay system (Promega, WI) according to the manufacturer's directions. Typically, lysis buffer (25 μL) was added to the cells and incubated at room temperature for 20-30 minutes to allow for the cells to lyse. The lysate (10 μL) was measured for luciferase and renilla activity with LARII and Stop&Glo reagent (50 μL each) with a SpectraMax L (Molecular Devices, CA). Data were analyzed with either Excel (Microsoft, WA) or Prism 4.03 (GraphPad, CA).
# (§4) ADBR2 is a GPCR, like GPR174, that activates the Gs signaling pathway.
# ADBR2 = target: T1, ADBR2 (Homo sapiens, UniProt P07550); test: CRE-Luc reporter Gs signaling assay, control receptor ADBR2; assay type: cell-based
# T1 construct: host or cells: HEK293 or CHO cell lines (ATCC)
# Protocol: as §2, §3, §4
# T1 sequence (P07550 whole entry): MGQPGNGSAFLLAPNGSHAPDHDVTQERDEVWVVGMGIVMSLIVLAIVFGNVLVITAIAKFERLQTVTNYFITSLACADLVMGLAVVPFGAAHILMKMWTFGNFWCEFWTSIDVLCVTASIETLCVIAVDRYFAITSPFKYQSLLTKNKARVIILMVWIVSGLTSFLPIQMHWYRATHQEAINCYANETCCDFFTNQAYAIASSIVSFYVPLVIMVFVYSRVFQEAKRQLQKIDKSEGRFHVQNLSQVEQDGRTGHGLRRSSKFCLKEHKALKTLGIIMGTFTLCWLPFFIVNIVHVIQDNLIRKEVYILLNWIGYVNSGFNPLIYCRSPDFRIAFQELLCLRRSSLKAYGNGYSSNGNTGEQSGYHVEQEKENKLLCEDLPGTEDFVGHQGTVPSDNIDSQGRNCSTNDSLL
# GPR174, sequence (Q9BXC1 whole entry): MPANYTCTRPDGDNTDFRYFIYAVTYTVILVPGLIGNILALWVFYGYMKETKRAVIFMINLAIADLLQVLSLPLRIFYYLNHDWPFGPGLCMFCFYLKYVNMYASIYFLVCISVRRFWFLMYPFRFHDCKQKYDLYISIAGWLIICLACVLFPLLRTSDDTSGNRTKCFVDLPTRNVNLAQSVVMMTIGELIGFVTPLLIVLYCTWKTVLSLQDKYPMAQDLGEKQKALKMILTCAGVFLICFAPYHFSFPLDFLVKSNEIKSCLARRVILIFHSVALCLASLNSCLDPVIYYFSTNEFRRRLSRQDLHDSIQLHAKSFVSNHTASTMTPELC
smiles,measurement,setting,value
CC1CCN(c2cc(N3CCN(S(=O)(=O)c4ccccc4)CC3)c([N+](=O)[O-])cc2F)CC1 [Compound 10],fraction of human CD4+ T cells with AREG positive staining,[1],reduced
same,fraction of human CD4+ T cells with PD-L1 positive staining,[1],reduced
same,fraction of human CD8+ T cells with TGIT positive staining,[1],reduced
same,fold induction of a panel of cytokines in splenocyte co-culture,C57BL/6+DBA1 splenocytes,strong alteration in quantities of cytokines
same,CTLA4 positive fraction of memory Treg (CD45RA−FOXP3+),[2],reduced
same,CTLA4 positive fraction of memory non-Treg (CD45RA−FOXP3−),[2],reduced
same,CTLA4 positive fraction of naïve non-Treg cells (CD45RA+FOXP3−),[2],reduced
same,CTLA-4 positive fraction of naïve Treg cells (CD45RA+FOXP3+),[2],reduced
same,fraction of FoxP3+Helios− cells in CD4+ population,"human PBMCs; day 3 post-stimulation, 100 μM, p=0.03 vs vehicle",significantly increased
same,abundance of FoxP3+Helios+ nTreg cells (fraction of vehicle),"human PBMCs; day 7, 30 μM, PBMC from eight donors",significantly reduced
same,abundance of FoxP3+Helios+ nTreg cells in CD4+ population,"human PBMCs; day 7, 3, 10, 30 μM, single donor, dose-dependent",significantly reduced
same,abundance of FoxP3+Helios+ nTreg cells in CD4+ population,"human PBMCs; day 7 post-stimulation, 100 μM, p=0.01 vs vehicle",significantly reduced
same,effect on Gs pathway in the presence of GPR174,GPR174,inhibited the Gs pathway
same,effect on Gs pathway in the presence of ADBR2,ADBR2,did not inhibit the Gs pathway
